The values below come from the supplement of paper PMC6965134.

The data set can be described thus: TIMS collisional cross section (CCS, N2) of the lipid ion; higher = larger ion cross section. Particulars: ionization mode: negative, one isomer drawn. The protocol:
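Lipid extracts of human plasma (NIST SRM 1950), mouse liver or HeLa cells were separated by nanoflow C18 LC (30 min gradient) and analysed by TIMS-PASEF on a timsTOF Pro. Ion mobility was calibrated with the Agilent tuning mix (negative mode ions) and converted to collisional cross sections (Mason–Schamp, N2).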

The mark [1] stands for this setting: sample type: Mouse Liver, ion (formula + adduct): [C39H72NO8P-H] 1-.
Where [2] appears, read: sample type: Human plasma, ion (formula + adduct): [C43H74NO8P-H] 1-.
Where [3] appears, read: sample type: Mouse Liver, ion (formula + adduct): [C43H74NO8P-H] 1-.
[4] abbreviates: sample type: Mouse Liver, ion (formula + adduct): [C45H82NO8P-H] 1-.

± gives the standard deviation of the averaged measurements.
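Note: lipids from MTBE extraction, five replicate injections per sample, 100 ms TIMS ramp spanning 0.6–1.95 Vs/cm², lipid identity assigned from PASEF MS/MS spectra.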

With `CCCCCCCCCCCCCCCCCC(=O)OCC(COP(=O)(O)OCCN)OC(=O)CCCCCCCCCCCCCCCCC` (stereo not given) [PE 18:0_18:0], where the note is “sample type: Mouse Liver, ion (formula + adduct): [C41H82NO8P-H] 1-”, the “TIMS collisional cross section” value was found to be 275.1 Å².
For the compound `CCCCCCCC/C=C\CCCCCCCC(=O)OC(COC(=O)CCCCCCCCCCCCCCCCC)COP(=O)(O)OCCN` (stereo not given) [PE 18:0_18:1], the “TIMS collisional cross section” value (sample type: Human plasma, ion (formula + adduct): [C41H80NO8P-H] 1-) turned out to be 274.6 Å².
`CCCCC/C=C\C/C=C\CCCCCCCC(=O)OC(COC(=O)CCCCCCCCCCCCCCCCC)COP(=O)(O)OCCN` (stereo not given) [PE 18:0_18:2]: the “TIMS collisional cross section” value (sample type: Mouse Liver, ion (formula + adduct): [C41H78NO8P-H] 1-) turned out to be 272.8 Å².
Take `CCCCCCCCC/C=C\CCCCCCCC(=O)O[C@H](COC(=O)CCCCCCCCCCCCCCCCC)COP(=O)(O)OCCN` [PE 18:0_19:1]: the “TIMS collisional cross section” value (sample type: Mouse Liver, ion (formula + adduct): [C42H82NO8P-H] 1-) came out at 278 Å².
With `CCCCCCCC/C=C\CCCCCCCCCC(=O)O[C@H](COC(=O)CCCCCCCCCCCCCCCCC)COP(=O)(O)OCCN` [PE 18:0_20:1], the “TIMS collisional cross section” value (sample type: Mouse Liver, ion (formula + adduct): [C43H84NO8P-H] 1-) is 282 Å².
Regarding `CCCCC/C=C\C/C=C\C/C=C\C/C=C\CCCC(=O)O[C@H](COC(=O)CCCCCCCCCCCCCCCCC)COP(=O)(O)OCCN` [PE 18:0_20:4], the “TIMS collisional cross section” value is, setting by setting: (sample type: Human plasma, ion (formula + adduct): [C43H78NO8P-H] 1-) 276.8 Å²; (sample type: Mouse Liver, ion (formula + adduct): [C43H78NO8P-H] 1-) 276.57 ± 0.29 Å².
With `CC/C=C\C/C=C\C/C=C\C/C=C\C/C=C\C/C=C\CCC(=O)OC(COC(=O)CCCCCCCCCCCCCCCCC)COP(=O)(O)OCCN` (stereo not given) [PE 18:0_22:6], the “TIMS collisional cross section” value (sample type: Human plasma, ion (formula + adduct): [C45H78NO8P-H] 1-) was 281.8 Å².
As for `CCCCCCCC/C=C\CCCCCCCC(=O)OCC(COP(=O)(O)OCCN)OC(=O)CCCCCCC/C=C\CCCCCCCC` (stereo not given) [PE 18:1_18:1], the “TIMS collisional cross section” value (sample type: Human plasma, ion (formula + adduct): [C41H78NO8P-H] 1-) was found to be 272.3 Å².
On to `CCCCC/C=C\C/C=C\CCCCCCCC(=O)O[C@H](COC(=O)CCCCCCC/C=C\CCCCCCCC)COP(=O)(O)OCCN` [PE 18:1_18:2], for which the “TIMS collisional cross section” value (sample type: Human plasma, ion (formula + adduct): [C41H76NO8P-H] 1-) worked out at 272 Å².
On to `CCCCC/C=C\C/C=C\CCCCCCCCCCCC(=O)O[C@H](COC(=O)CCCCCCC/C=C\CCCCCCCC)COP(=O)(O)OCCN` [PE 18:1_22:2], for which the “TIMS collisional cross section” value (sample type: Mouse Liver, ion (formula + adduct): [C45H84NO8P-H] 1-) is recorded as 284.1 Å².
Take `CCCCC/C=C\C/C=C\CCCCCCCC(=O)OC[C@H](COP(=O)(O)OCCN)OC(=O)CCCCCCC/C=C\CCCCCC` [PE 18:2_16:1@]: under setting [1], the “TIMS collisional cross section” value worked out at 264 Å².
In the case of `CCCCC/C=C\C/C=C\CCCCCCCC(=O)OC[C@H](COP(=O)(O)OCCN)OC(=O)CCCCCCC/C=C\CCCCCC` [PE 18:2_16:1], the “TIMS collisional cross section” value is, setting by setting: (sample type: Human plasma, ion (formula + adduct): [C39H72NO8P-H] 1-) 264.3 Å²; under setting [1], 264.3 Å².
For the compound `CCCCC/C=C\C/C=C\CCCCCCCC(=O)OCC(COP(=O)(O)OCCN)OC(=O)CCCCCCC/C=C\C/C=C\CCCCC` (stereo not given) [PE 18:2_18:2], the “TIMS collisional cross section” value runs as follows: (sample type: Human plasma, ion (formula + adduct): [C41H74NO8P-H] 1-) 268.8 Å²; (sample type: Mouse Liver, ion (formula + adduct): [C41H74NO8P-H] 1-) 268.8 Å².
For `CC/C=C\C/C=C\C/C=C\C/C=C\CCCCC(=O)OC[C@H](COP(=O)(O)OCCN)OC(=O)CCCCCCCCCCCCCCCCC` [PE 18:4_18:0@], the “TIMS collisional cross section” value (sample type: Human plasma, ion (formula + adduct): [C41H74NO8P+AcO] 1-) stood at 282.4 Å².
For `CCCCC/C=C\C/C=C\C/C=C\C/C=C\CCCC(=O)O[C@H](COC(=O)CCCCCCCCCCCCCCCCCC)COP(=O)(O)OCCN` [PE 19:0_20:4], the “TIMS collisional cross section” value (sample type: Mouse Liver, ion (formula + adduct): [C44H80NO8P-H] 1-) worked out at 279.6 Å².
In the case of `CC/C=C\C/C=C\C/C=C\C/C=C\C/C=C\C/C=C\CCC(=O)O[C@H](COC(=O)CCCCCCCCC/C=C\CCCCCCCC)COP(=O)(O)OCCN` [PE 20:1_22:6], under “sample type: Mouse Liver, ion (formula + adduct): [C47H80NO8P-H] 1-”, the “TIMS collisional cross section” value is recorded as 285.8 Å².
In the case of `CC/C=C\C/C=C\C/C=C\C/C=C\C/C=C\C/C=C\CCC(=O)O[C@H](COC(=O)CCCCCCCCC/C=C\C/C=C\CCCCC)COP(=O)(O)OCCN` [PE 20:2_22:6], the “TIMS collisional cross section” value (sample type: Mouse Liver, ion (formula + adduct): [C47H78NO8P-H] 1-) is 283.4 Å².
`CCCCC/C=C\C/C=C\C/C=C\CCCCCCC(=O)OC[C@H](COP(=O)(O)OCCN)OC(=O)CCCCCCCCCCCCCCC` [PE 20:3_16:0]: under “sample type: Mouse Liver, ion (formula + adduct): [C41H76NO8P-H] 1-”, the “TIMS collisional cross section” value worked out at 271.1 Å².
For `CCCCC/C=C\C/C=C\C/C=C\CCCCCCC(=O)OC[C@H](COP(=O)(O)OCCN)OC(=O)CCCCCCCCCCCCCCCCC` [PE 20:3_18:0], the “TIMS collisional cross section” value (sample type: Mouse Liver, ion (formula + adduct): [C43H80NO8P-H] 1-) is 277.3 Å².
Turning to `CCCCC/C=C\C/C=C\C/C=C\C/C=C\CCCC(=O)OC[C@H](COP(=O)(O)OCCN)OC(=O)CCCCCCCCCCCCC` [PE 20:4_14:0], under “sample type: Mouse Liver, ion (formula + adduct): [C39H70NO8P-H] 1-”, the “TIMS collisional cross section” value came out at 263.7 Å².
Turning to `CCCCC/C=C\C/C=C\C/C=C\C/C=C\CCCC(=O)OC[C@H](COP(=O)(O)OCCN)OC(=O)CCCCCCC/C=C\C/C=C\CCCCC` [PE 20:4_18:2@], the “TIMS collisional cross section” value under setting [2] is 275.6 ± 3.2 Å².
Regarding `CCCCC/C=C\C/C=C\C/C=C\C/C=C\CCCC(=O)OC[C@H](COP(=O)(O)OCCN)OC(=O)CCCCCCC/C=C\C/C=C\CCCCC` [PE 20:4_18:2], under setting [3], the “TIMS collisional cross section” value was determined as 272.7 Å².
In the case of `CCCCC/C=C\C/C=C\C/C=C\C/C=C\CCCC(=O)OC[C@H](COP(=O)(O)OCCN)OC(=O)CCCCCCCCCCCCCCCCCCC` [PE 20:4_20:0], the “TIMS collisional cross section” value under setting [4] is 281.8 Å².
As to `CCCCC/C=C\C/C=C\C/C=C\C/C=C\CCCC(=O)OC[C@H](COP(=O)(O)OCCN)OC(=O)CCCCCCCCCCCCCCCCCCCCC` [PE 20:4_22:0], the “TIMS collisional cross section” value (sample type: Mouse Liver, ion (formula + adduct): [C47H86NO8P-H] 1-) was 288 Å².
For the compound `CC/C=C\C/C=C\C/C=C\C/C=C\C/C=C\C/C=C\CCC(=O)O[C@H](COC(=O)CCC/C=C\C/C=C\C/C=C\C/C=C\CCCCC)COP(=O)(O)OCCN` [PE 20:4_22:6], under “sample type: Mouse Liver, ion (formula + adduct): [C47H74NO8P-H] 1-”, the “TIMS collisional cross section” value is recorded as 280.6 Å².
For the compound `CC/C=C\C/C=C\C/C=C\C/C=C\C/C=C\CCCC(=O)OC[C@H](COP(=O)(O)OCCN)OC(=O)CCCCCCCCCCCCCCCCC` [PE 20:5@_18:0], the “TIMS collisional cross section” value (sample type: Human plasma, ion (formula + adduct): [C43H76NO8P-H] 1-) was found to be 276.2 Å².
As to `CC/C=C\C/C=C\C/C=C\C/C=C\C/C=C\CCCC(=O)OC[C@H](COP(=O)(O)OCCN)OC(=O)CCCCCCCCCCCCCCC` [PE 20:5_16:0], the “TIMS collisional cross section” value amounted to 269.4 Å² (sample type: Human plasma, ion (formula + adduct): [C41H72NO8P-H] 1-) and 269.4 Å² (sample type: Mouse Liver, ion (formula + adduct): [C41H72NO8P-H] 1-).
For the compound `CC/C=C\C/C=C\C/C=C\C/C=C\C/C=C\CCCC(=O)OC[C@H](COP(=O)(O)OCCN)OC(=O)CCCCCCC/C=C\CCCCCCCC` [PE 20:5_18:1], the “TIMS collisional cross section” value worked out at 274.5 Å² under setting [2] and 273.9 Å² under setting [3].
Turning to `CCCCC/C=C\C/C=C\C/C=C\C/C=C\CCCCCC(=O)OC[C@H](COP(=O)(O)OCCN)OC(=O)CCCCCCCCCCCCCCCCC` [PE 22:4_18:0], the “TIMS collisional cross section” value by setting is: (sample type: Human plasma, ion (formula + adduct): [C45H82NO8P-H] 1-) 283.6 Å²; under setting [4], 283 Å².
As to `CC/C=C\C/C=C\C/C=C\C/C=C\C/C=C\C/C=C\CCC(=O)OC[C@H](COP(=O)(O)OCCN)OC(=O)CCCCCCC/C=C\CCCCCCCC` [PE 22:6@_18:1], the “TIMS collisional cross section” value (sample type: Human plasma, ion (formula + adduct): [C45H76NO8P-H] 1-) worked out at 278.4 Å².
With `CC/C=C\C/C=C\C/C=C\C/C=C\C/C=C\C/C=C\CCC(=O)OC[C@H](COP(=O)(O)OCCN)OC(=O)CCC/C=C\C/C=C\C/C=C\C/C=C\C/C=C\CC` [PE 22:6@_20:5], the “TIMS collisional cross section” value (sample type: Mouse Liver, ion (formula + adduct): [C47H72NO8P-H] 1-) is on record as 279.4 Å².
In the case of `CC/C=C\C/C=C\C/C=C\C/C=C\C/C=C\C/C=C\CCC(=O)OC[C@H](COP(=O)(O)OCCN)OC(=O)CCCCCCCCCCCCC` [PE 22:6_14:0], the “TIMS collisional cross section” value (sample type: Mouse Liver, ion (formula + adduct): [C41H70NO8P-H] 1-) came out at 268.2 Å².
Consider `CC/C=C\C/C=C\C/C=C\C/C=C\C/C=C\C/C=C\CCC(=O)OC[C@H](COP(=O)(O)OCCN)OC(=O)CCCCCCC/C=C\CCCCCC` [PE 22:6_16:1], for which the “TIMS collisional cross section” value (sample type: Mouse Liver, ion (formula + adduct): [C43H72NO8P-H] 1-) was determined as 272.7 Å².
`CC/C=C\C/C=C\C/C=C\C/C=C\C/C=C\C/C=C\CCC(=O)OC[C@H](COP(=O)(O)OCCN)OC(=O)CCCCCCC/C=C\CCCCCCCC` [PE 22:6_18:1]: the “TIMS collisional cross section” value (sample type: Mouse Liver, ion (formula + adduct): [C45H76NO8P-H] 1-) is listed as 279.5 ± 0.85 Å².
